Test results published in patent US20200095241A1, “SUBSTITUTED 1,2,4-THIADIAZOLYLPYRROLONES AND 1,2,4-THIADIAZOLYLHYDANTOINS AND SALTS THEREOF AND USE THEREOF AS HERBICIDES” (Bayer CropScience Aktiengesellschaft, priority 2016, published 2020).

target: T1, photosystem II (PS II) (Spinacia oleracea, UniProt P69560); assay: Measurement of the PS II activity in thylakoid membranes (DCPIP reduction); format: biochemical; details: 100 μM test compound, spinach thylakoid membranes, DCPIP 120 μM, 10 min at 22° C. with exposure to light
T1 construct: the chloroplasts were osmotically ruptured and the thylakoid membranes were then obtained by centrifugation; from tissue; host or cells: fresh spinach leaves; thylakoid membranes isolated from chloroplasts
Description: Cooled fresh spinach leaves were comminuted and homogenized in 50 mM phosphate buffer, pH 6.8. 10 mM KCl, 0.34 M sucrose (sucrose buffer) (blender, 1 g of plant material/ml). The homogenate was subsequently filtered through 4 layers of Miracloth and the chloroplasts were isolated by centrifugation, i.e. 10 min of centrifugation at 4400×g (4° C.). The sediment was suspended in 25 ml of sucrose buffer and re-centrifuged for 10 min at 4400×g (4° C.). The sediment was then suspended in 40 ml of 50 mM phosphate buffer, pH 6.8, 10 mM KCl, without sucrose. In this step, the chloroplasts were osmotically ruptured and the thylakoid membranes were then obtained by centrifugation (10 min, 4400×g, 4° C.). The membrane sediment was finally suspended in 20 ml of 50 mM phosphate buffer, pH 6.8, 10 mM KCl. Following protein determination and activity determination, the membrane suspension was divided into aliquots and frozen in liquid nitrogen. The aliquots were stored at −80° C. Under these conditions, the photosystem II preparation was storage stable for at least three months. The activity determination of photosystem II (PS II) was then carried out using the following test principle:
The electron transfer from PS II to an artificial electron acceptor, 2,6-dichlorophenolindophenol (DCPIP), was measured with exposure to light. The concentration of the blue oxidized form of DCPIP was determined spectrophotometrically at wavelength λ=595 nm. […] The activity determination was carried out in microtiter plates (96 cavities) in a reaction volume of 200 μl. Here, 155 μl of dilute membrane suspension were initially charged in 50 mM of phosphate buffer, pH 6.8, 10 mM KCl. Depending on the activity of the PS II preparation, the dilution was adjusted such that the measurement of the decrease in absorption (λ=595 nm) was linear for at least 10 min. In each case 5 μl solution of the test compounds of a concentration of 100 μM in DMSO were added to the enzyme suspension; controls contained 5 μl DMSO; the final concentration of DMSO in the reaction batch was thus 2.5% (v/v); this concentration had no adverse effect on the enzymatic activity. On each microtiter plate, a known PS II inhibitor, for example metribuzin, was used as standard, which allowed the quality of the PS II test to be assessed. The reaction was started by addition of 40 μl DCPIP solution (600 μM in distilled water); the final concentration of DCPIP was 120 μM. Measurement of absorption was carried out over a period of 10 min at 22° C. and with exposure to light. Using metribuzin as comparative substance, the results for the efficacy of the compounds of the general formula (I) at 100 μM are stated in the table below using the following classification: ++++ (inhibition≥90%), +++ ([…]≥70%), ++ (70%>inhibition≥50%), + (50%>inhibition≥30%).

| Effect (inhibition of PS II activity) | Structure (SMILES) |
| --- | --- |
| ++++ (inhibition≥90%) | COc1ccc(-c2nsc(N3C(=O)C(C)=C(C)C3O)n2)cc1 (stereo not shown) [I.2-83] |
| ++++ (inhibition≥90%) | CC1=C(C)C(O)N(c2nc(C3(C)CC3)ns2)C1=O (stereo not shown) [I.2-335] |
| ++++ (inhibition≥90%) | CC1=C(C)C(O)N(c2nc(SCCOC(F)(F)C(F)(F)F)ns2)C1=O (stereo not shown) [I.2-339] |
| ++++ (inhibition≥90%) | CCCc1nsc(N2C(=O)C(Cl)=C(C)C2O)n1 (stereo not shown) [I.3-4] |
| +++ (90%≥inhibition≥70%) | COCc1nsc(N2C(=O)C(Cl)=C(C)C2O)n1 (stereo not shown) [I.3-122] |
| +++ (90%≥inhibition≥70%) | CC1=C(Cl)C(O)N(c2nc(C)ns2)C1=O (stereo not shown) [I.4-2] |
| ++++ (inhibition≥90%) | CCc1nsc(N2C(=O)C(C)=C(Cl)C2O)n1 (stereo not shown) [I.4-3] |
| ++++ (inhibition≥90%) | CCCc1nsc(N2C(=O)C(C)=C(Cl)C2O)n1 (stereo not shown) [I.4-4] |
| ++++ (inhibition≥90%) | COc1nsc(N2C(=O)C(C)=C(Cl)C2O)n1 (stereo not shown) [I.4-363] |
| ++++ (inhibition≥90%) | CCc1nsc(N2C(=O)C(Br)=C(C)C2O)n1 (stereo not shown) [I.5-3] |
| ++++ (inhibition≥90%) | CCCc1nsc(N2C(=O)C(Br)=C(C)C2O)n1 (stereo not shown) [I.5-4] |
| ++++ (inhibition≥90%) | CCc1nsc(N2C(=O)C(C)=C(Br)C2O)n1 (stereo not shown) [I.6-3] |
| ++++ (inhibition≥90%) | CCCc1nsc(N2C(=O)C(C)=C(Br)C2O)n1 (stereo not shown) [I.6-4] |
| ++++ (inhibition≥90%) | CC1=C(Br)C(O)N(c2nc(C3CC3)ns2)C1=O (stereo not shown) [I.6-11] |
| ++ (70%>inhibition≥50%) | O=C1C(Cl)=C(C2CCCCC2)C(O)N1c1nc(C2CC2)ns1 (stereo not shown) [I.9-11] |
| +++ (90%≥inhibition≥70%) | CC(C)c1nsc(N2C(=O)C(C3CCCCC3)=C(Cl)C2O)n1 (stereo not shown) [I.10-5] |

| Structure (SMILES) | Effect (inhibition of PS II activity) |
| --- | --- |
| CCc1nsc(N2C(=O)N(C)CC2O)n1 (stereo not shown) [I.13-3] | +++ (90%≥inhibition≥70%) |
| CN1CC(O)N(c2nc(C(C)(C)C)ns2)C1=O (stereo not shown) [I.13-288] | ++ (70%>inhibition≥50%) |

same assay, conditions: 100 μM test compound, spinach thylakoid membranes, DCPIP 120 μM, 10 min at 22° C. with exposure to light; read-out: Effect (inhibition of PS II activity)

| inhibition at 100 µM (stock) [%] | Structure (SMILES) |
| --- | --- |
| 50 to 70 | COCc1nsc(N2C(=O)C(C)=C(C)C2O)n1 (stereo not shown) [I.2-122, 3,4-Dimethyl-5-hydroxy-1-(3-methoxymethyl-1,2,4-thiadiazol-5-yl)-1,5-dihydro-2H-pyrrol-2-one] |
| > 90 | CC1=C(Cl)C(=O)N(c2nc(C3(C)CC3)ns2)C1O (stereo not shown) [I.3-335, 3-Chloro-4-methyl-5-hydroxy-1-[3-(1-methylcycloprop-1-yl)-1,2,4-thiadiazol-5-yl]-1,5-dihydro-2H-pyrrol-2-one] |
| > 90 | CC1=C(Cl)C(O)N(c2nc(C3CC3)ns2)C1=O (stereo not shown) [I.4-11, 4-chloro-3-methyl-5-hydroxy-1-(3-cyclopropyl-1,2,4-thiadiazol-5-yl)-1,5-dihydro-2H-pyrrol-2-one] |
| 50 to 70 | CC1=C(Cl)C(O)N(c2nc(C3(C)CC3)ns2)C1=O (stereo not shown) [I.4-335, 4-chloro-3-methyl-5-hydroxy-1-[3-(1-methylcycloprop-1-yl)-1,2,4-thiadiazol-5-yl]-1,5-dihydro-2H-pyrrol-2-one] |
